Read-outs that look alike come from different tables or passages of the source.
Tests used:
[1] = tested on: gastric acid secretion induced by histamine; test: Anti-secretive activity, gastric acid secretion stimulated with histamine (Lai method, modified); format: in vivo; details: Rattus norvegicus, iv, 1 h; I.V.; rats; histamine 2.3 mg/kg/h; read-out: ED50, antagonistic activity towards secretion induced by histamine
Experimental: (§1) The anti-secretive activities were determined in rats with the use of male animals weighing approximately 200 g, anaesthetised with urethane. Gastric secretion was stimulated with pentagastrin, histamine or cabachol.
(§2) After tracheotomy, cannulae were inserted in the aesophagus and the duodenum. These were perfused with a tepid solution (37° C.) which was passed through the stomach at a constant flow rate of 1 ml/minute by means of a peristaltic pump. After stabilisation for 20 minutes, the stimulant, dissolved in a physiological solution, was perfused for 120 minutes at the dose indicated in Table 1 in a volume of 0.95 ml/hour. After 60 minutes of perfusion (base stimulation) the product under test was administered intravenously (I.V.) in a bolus and the perfusion of the stimulant was continued for a further 60 minutes. The acid secretion was recorded continuously as a function of time.
(§3) The activity of the product was evaluated as a percentage reduction in the acid secreted after the administration of the product against the base acidity measured in the first 60 minutes of collection which was in the presence of the stimulant alone.

[2] = tested on: gastric acid secretion induced by carbachol; test: Anti-secretive activity, gastric acid secretion stimulated with carbachol (Lai method, modified); format: in vivo; details: Rattus norvegicus, iv, 1 h; I.V.; rats; carbachol 30 mcg/kg/h; read-out: ED50, antagonistic activity towards secretion induced by carbachol
Experimental: as §1, §2, §3

[3] = tested on: gastric acid secretion induced by pentagastrin; test: Anti-secretive activity, gastric acid secretion stimulated with pentagastrin (Lai method, modified); format: in vivo; details: Rattus norvegicus, iv, 1 h; I.V.; rats; pentagastrin 30 mcg/kg/h; read-out: ED50, antagonistic activity towards secretion induced by pentagastrin
Experimental: as §1, §2, §3

[4] = tested on: passive cutaneous anaphylaxis reaction; test: Passive cutaneous anaphylaxis (PCA) in rats, modified Goose and Blair method; format: in vivo, rat; details: for ED50: Rattus norvegicus, iv, 0.5 h, I.V., rats
Experimental: Male rats weighing approximately 400 g were treated with 10 mg/kg of grade V egg albumen dissolved in 1 ml of a physiological solution by I.M. and intraperitoneal (I.P.) routes. With one mg of Freund's complete adjuvent solution. 13 days after sensitisation, the animals were killed under […] anaesthesia, the blood was taken and the serum was kept at -70° C. after its titre of IgE specific to egg albumen had been assayed. On the basis of type, 2 intradermal injections (i.d.) of 0.1 ml of the antiserum, titrated and suitably diluted were given into the shaved backs of 200 g male rats at a time -24h.
The products under test were administered I.V. 20 minutes of the antigen. The animals were killed 30 minutes after the challenge, the skin of the back was turned inside out and the larger and smaller diameters of each blemish were measured. In practice the response of each animal was evaluated as the average of four diameters.

[5] = tested on: ulcer caused by 25% NaCl; test: Cytoprotective activity, ulcer caused by 25% NaCl; format: in vivo; details: Rattus norvegicus, iv, 1 h, read-out: ED50, cytoprotective activity, ulcer caused by 25% NaCl
Experimental: (§4) The drugs under test were administered intravenously 15 minutes before the irritant. […] It consists of the assignment of arbitrary points according to the number and gravity of the lesions in accordance with the following criterion:
(§5) 1 if the length of the necrotic area is 2 mm
(§6) 2 if the length of the necrotic area is between 2 and 4 mm
(§7) 3 if the length of the necrotic area is 4 mm
(§8) 5 if the length of the area is 4 mm with a perforated ulcer.
(§9) A lesion index is then obtained by adding the number of lesions multiplied by their respective points.

[6] = tested on: actively-sensitised guinea-pig lung fragments (histamine release); test: Anaphylaxis in vitro, histamine release from actively sensitised guinea-pig lung fragments (modified Broklehurst method); format: cell-based; details: for inhibition at 10 µg/mL / inhibition at 30 µg/mL / inhibition at 100 µg/mL / inhibition at 300 µg/mL / EC50: Cavia porcellus; for inhibition at 10 µg/mL: 10 mcg/ml; for inhibition at 10 µg/mL / inhibition at 30 µg/mL / inhibition at 100 µg/mL / inhibition at 300 µg/mL: read-out: % inhibition of anaphylactic histamine release; for inhibition at 30 µg/mL: 30 mcg/ml; for inhibition at 100 µg/mL: 100 mcg/ml; for inhibition at 300 µg/mL: 300 mcg/ml; for EC50: guinea-pig lung fragments in vitro, read-out: EC50, anaphylactic histamine release; for activity in the in vitro anaphylaxis model relative to DSCG: compared with DSCG
Experimental: Male guinea pigs weighing approximately 250 g were sensitised with […] of grade V egg albumen dissolved in 1 ml of physiological solution and administered (1 ml/kg) I.P. and subcutaneously (S.C.). After three weeks the animals were killed under ethereal anaesthesia by bleeding. The lungs were removed and immersed in Tyrode solution at 4° C. Homogeneous fragments approximately 2 mm long were cut and divided into test pieces containing approximately 400 mg of tissue and […] of Tyrode. The samples were preincubated at 37° C. for 15 minutes with the compounds under test dissolved in 0.1 of Tyrode and incubated for a further 20 minutes at 37° C. The reaction was stopped by cooling in ice.
0.8 ml of the supernatant liquid were treated with perchloric acid and centrifuged to remove the proteins. The supernatant liquid was then made alkaline with 5N NaOH, the histamine was extracted with n-butanol and, after suitable dilution with n-heptane, was extracted again in dilute HCl.
O-phthalaldehyde was added to the samples and their fluorescence was measured with a fluorimeter at 450 mu after activation at 360 mu.
The histamine concentration in the samples was obtained from a standard straight-line graph in the range 50-800 ng/ml of histamine.

[7] = tested on: ulcer caused by stress; test: Cytoprotective activity, ulcer caused by stress (containment); format: in vivo; details: Rattus norvegicus, im, 5 h, read-out: ED50, cytoprotective activity, ulcer caused by stress
Experimental: as §5, §6, §7, §8, §9
Male rats weighing approximately 150 g which had been starved for 24 hours were imprisoned in individual cylindrical cages and immersed up to the xiphoid process in cool water kept thermostatically at 19° C. The compounds were administrated intramuscularly (I.M.) 15 minutes before the start of the test.
5 hours after the start of their containment, the animals were killed, their stomachs were removed and a quantitative evaluation was then carried out as described above.

[8] = tested on: ulcer caused by ethanol; test: Cytoprotective activity, ulcer caused by ethanol; format: in vivo, rat; details: for ED50: Rattus norvegicus, iv, 1 h, read-out: ED50, cytoprotective activity, ulcer caused by ethanol; for protective activity (in words): ulcer models of Table 2 (ethanol, 25% NaCl, stress)
Experimental: as §4, §5, §6, §7, §8, §9

[9] = I.V., rats, 15 minutes before NaCl
[10] = I.M., rats, 15 minutes before the test
[11] = I.V., rats, 15 minutes before ethanol

COc1cc(C(=O)Nc2cc(C(=O)O)cc(C(=O)O)c2)ccc1[N+](=O)[O-] [Compound 9, N-(3,5-dicarboxy)phenyl-3-methoxy-4-nitrobenzamide]
ED50 [1]: 100 mg/kg | ED50 [2]: 88 mg/kg | ED50 [3]: 88 mg/kg

N#Cc1ccc(C(=O)Nc2ccc(-c3nn[nH]n3)cc2)cc1 [Compound 10, N-°4-(5-tetrazolyl)e-phenyl-4-cyanobenzamide]
ED50 [1]: 45 mg/kg | ED50 [2]: 39 mg/kg | ED50 [3]: 42 mg/kg

O=C(O)c1cc(NC(=O)c2ccc(-c3nn[nH]n3)cc2)cc(C(=O)O)c1 [Compound 11, N-(3,5-dicarboxy)phenyl-4-(5-tetrazolyl)-benzamide]
% inhibition of passive cutaneous anaphylaxis ([4]; 50 mg/kg I.V.): 53.3% | % inhibition of passive cutaneous anaphylaxis ([4]; 100 mg/kg I.V.): 66% | % inhibition of passive cutaneous anaphylaxis ([4]; 150 mg/kg I.V.): 74.7% | ED50 [4]: 42.6 mg/kg | ED50 [1]: 41 mg/kg | ED50 [5, 9]: 29 mg/kg | ED50 [2]: 50 mg/kg | ED50 [3]: 33 mg/kg | inhibition at 10 µg/mL [6]: 11.8% | inhibition at 30 µg/mL [6]: 27.2% | inhibition at 100 µg/mL [6]: 42.4% | inhibition at 300 µg/mL [6]: 53.3% | EC50 [6]: 216 µg/mL | activity in the in vitro anaphylaxis model relative to DSCG [6]: 10-15 times | ED50 [7, 10]: 65 mg/kg | ED50 [8, 11]: 7 mg/kg

O=C(Nc1ccc(-c2nn[nH]n2)cc1)c1ccc(-c2nn[nH]n2)cc1 [Compound 12, N-°4-(5-tetrazolyl)phenyl-4-(5-tetrazolyl)-benzamide]
% inhibition of passive cutaneous anaphylaxis ([4]; 10 mg/kg I.V.): 39.0% | % inhibition of passive cutaneous anaphylaxis ([4]; 30 mg/kg I.V.): 45.3% | % inhibition of passive cutaneous anaphylaxis ([4]; 100 mg/kg I.V.): 67.6% | ED50 [4]: 30.9 mg/kg | ED50 [1]: 32 mg/kg | ED50 [5]: 12 mg/kg | ED50 [2]: 30 mg/kg | ED50 [3]: 26 mg/kg | inhibition at 10 µg/mL [6]: 22.8% | inhibition at 30 µg/mL [6]: 28.4% | inhibition at 100 µg/mL [6]: 56.2% | inhibition at 300 µg/mL [6]: 65.4% | EC50 [6]: 93 µg/mL | activity in the in vitro anaphylaxis model relative to DSCG [6]: 10-15 times | ED50 [7]: 56 mg/kg | ED50 [8]: 3 mg/kg

N#Cc1ccc(C(=O)Nc2cc(C(N)=O)cc(C(=O)O)c2)cc1 [Compound 13, N-(3-carboxy-5-carbamoyl)phenyl-4-cyanobenzamide]
ED50 [1]: 73 mg/kg | ED50 [2]: 65 mg/kg | ED50 [3]: 68 mg/kg

NC(=O)c1cc(NC(=O)c2ccc(-c3nn[nH]n3)cc2)cc(C(=O)O)c1 [Compound 14, N-(3-carboxy-5-carbamoyl)phenyl-4-(5-tetrazolyl)-benzamide]
ED50 [1]: 48 mg/kg | ED50 [2]: 48 mg/kg | ED50 [3]: 51 mg/kg

O=C(O)c1cc(=O)c2c(OCC(O)COc3cccc4oc(C(=O)O)cc(=O)c34)cccc2o1 [DSCG, Di-sodium chromoglycate, reference compound]
% inhibition of passive cutaneous anaphylaxis ([4]; 50 mg/kg I.V.): 16.0% | % inhibition of passive cutaneous anaphylaxis ([4]; 100 mg/kg I.V.): 22.1% | % inhibition of passive cutaneous anaphylaxis ([4]; 150 mg/kg I.V.): 57.5% | ED50 [4]: 153 mg/kg | dose relation of activity (in words) ([6]; 10-300 mcg/ml): poorly dose-related | inhibitory effect on the release of histamine, all doses tested ([6]; 10-300 mcg/ml): ≤ 50% | inhibition at 10 µg/mL [6]: 6.8% | inhibition at 30 µg/mL [6]: 19.7% | inhibition at 100 µg/mL [6]: 17.8% | inhibition at 300 µg/mL [6]: 41.2% | EC50 [6]: 1460 µg/mL

CN1CCN(CC(=O)N2c3ccccc3C(=O)Nc3cccnc32)CC1 [PIRENZEPINE, pirenzepine, reference compound]
ED50 [5, 9]: > 50 mg/kg | ED50 [7, 10]: > 75 mg/kg | ED50 [8, 11]: > 50 mg/kg | protective activity (in words) [8]: inactive

CN/C(=N/CCSCc1nc[nH]c1C)NC#N [[…], cimetidine, reference compound]
ED50 [5]: > 50 mg/kg | ED50 [7]: > 75 mg/kg | ED50 [8]: > 50 mg/kg | protective activity (in words) [8]: inactive

Reference: patent US5232937A, “Derivatives of N-phenylbenzamide with anti-ulcer and anti-allergy” (Rotta Research Laboratorium SpA., priority 1989, dated 1993)
